Experimental data as given in patent publication US20050080102A1, “Compound and uses thereof” (priority 2002, published 2005).
Blank lines part the entries; values can stand above or below the compound they belong to.

Columns and labels:
Assay type in all cases: biochemical
[1] = test system: apoptosome (Apaf-1/caspase-9); assay: Apoptosome formation and caspase-9 activation in reconstituted system (Q30, cytochrome c, dATP)
Experimental: FIG. 5 illustrates regulation of apoptosome by ProT and PHAP. FIG. 5(A) illustrates that PHAP accelerates caspase-3 activation after PETCM antagonizes the inhibitory activity of ProT. FIG. 5(B) illustrates that ProT inhibits apoptosome formation, and PETCM can antagonize the inhibitory activity. FIG. 5(C) illustrates that PHAP enhances caspase-9 activation. Apoptosome formation was measured as described in FIG. 1.
Subsequently, regulation of apoptosome by these players was tested. […] PETCM promotes caspase-3 activation by removing the inhibition of ProT on apoptosome formation, allowing PHAPs to stimulate apoptosome activity.

[2] = test system: caspase-3 (procaspase-3 cleavage); assay: Caspase-3 activation reconstituted with HeLa S-100 fractions (Q-ft, Q30, Q100) and purified/recombinant proteins
Excerpt: To study the mechanism, HeLa cell S-100 extracts were fractionated using an anion exchange column. […] The first fraction, Q-ft, flew through the column and contained cytochrome c (Liu et al., Cell 86:147 (1996)). The second fraction, Q30, was eluted with 0.3 M NaCl and contained Apaf-1 (Zou et al., Cell 90:405 (1997)) and procaspase-9 (Li et al., Cell 91:479 (1997)). The third fraction, Q100, was eluted with 1 M NaCl. These three fractions were then used in different combinations to search for proteins that might mediate the PETCM effect.
The inhibitory activity was assayed by adding column fractions to the mixture of Q30/cytochrome c/PHAP/dATP.
Ten ml of HeLa S-100 (˜60 mg total protein) was loaded on a 1-ml HiTrap Q column (Pharmacia) pre-equilibrated with Buffer A (i.e., 20 mM Hepes-KOH, pH7.5, 10 mM KCl, 1.5 mM Mg Cl2, 1 mM sodium EDTA and 1 mM sodium EGTA, 1 mM dithiothreitol, and 0.1 mM PMSF). The flowthrough (Q-ft) was collected. After being washed with 10-ml of Buffer A, the column was eluted with 10-ml of Buffer A containing 300 mM NaCl, and the eluted protein peak ([…]) was collected (Q30). Subsequently, the column was eluted with Buffer A containing 1 M NaCl, and the protein peak (−3 ml) was collected and dialyzed for overnight (Q100).

Apaf-1 (apoptosome) = assay: Apoptosome formation in HeLa cell S-100, gel-filtration chromatography and Western blot against Apaf-1
Experimental: In order to find out how this small molecule ([…]) promotes activation of caspase-3, apoptosome formation was analyzed using gel-filtration chromatography followed by Western blot analysis against Apaf-1 (Zou H et al., Cell 90:405-413, 1997). Other methods known to those of ordinary skill in the art may also be used for such an analysis.

caspase-3 [3] = assay: Caspase-3 activation in HeLa cell lysate/S-100 (Ac-DEVD-pNA cleavage, HTS)
Experimental: Other means of measuring caspoase-3 activation are also encompassed herein and are readily known to those of ordinary skill in the art.
With respect to Example I, the high throughput screening (HTS) was essentially a cell-lysate assay in which the endpoint, activation of caspase-3, was monitored by the cleavage of a calorimetric substrate. HeLa cell lysate was prepared by Cellex Bioscience (Minneapolis, Minn.). This lysate was thawed and centrifuged before use (15K rpm in a JA20 Beckman rotor, Fullerton, Calif.). […] The plates were allowed to incubate for three to four hours. When 90% of the Ac-DEVD-pNA (Bachem L1945) was converted by the activated capsase-3 in the control plate, the screening plates were read again at 390 nm. The change in absorbency was scaled to the fully-activated control (cytochrome c) and the negative control (no compound).

[4] = test system: extracts from human tumor cells (caspase activation); assay: Response of extracts from a battery of human tumor cells to PETCM; settings: colon cancer, prostate cancer, promyelocytic leukemia, T cell leukemia, bone marrow leukemia, malignant melanoma, lymphoma, glioblastoma cells
Experimental: Extracts from a battery of human tumor cells were also screened for their response to PETCM. It was determined that many human cancer lines, including colon cancer, prostate cancer, promyelocytic leukemia, T cell leukemia, bone marrow leukemia, malignant melanoma, lymphoma, and glioblastoma cells were responsive. […] PETCM and the PETCM-stimulated caspase activation pathway are therefore of fundamental and clinical significance with respect to malignant mammalian cells. Thus, the present invention encompasses a method of stimulating caspase activity in malignant cells comprising exposing said cells to PETCM or administering PETCM to said cells.

caspase-3 [5] = assay: Caspase-3 activation in extracts from RNAi treated HeLa cells; settings: extracts from control RNAi treated-cells (FIG. 6D)
Excerpt: (SEQ ID NO:7) and […] (SEQ ID NO:9) and […]

- caspase-3 activation ([2]; Q30 fraction plus cytochrome c and 10 μM dATP (FIG. 5A, lane 2)): stimulated caspase-3 activation
Compound: PHAPI: recombinant His-tagged PHAPI, putative tumor suppressor protein that stimulates caspase activation
- apoptosome formation ([1]; presence of PHAPI): did not affect the efficiency of apoptosome formation
- caspase-9 activation ([1]; presence of PHAPI (FIG. 5C)): more activated caspase-9 was observed

Compound: OC(Cc1ccncc1)C(Cl)(Cl)Cl (stereo not drawn) [PETCM, alpha-(trichloromethyl)-4-Pyridineethanol]
- apoptosome formation ([1]; FIG. 5B, ProT plus PETCM): relieved the blockage
- reversal of Q100 suppression of PHAP stimulatory activity ([2]; PHAP with Q100 added back (FIG. 4A, lanes 5-6)): the suppression was reversed by the addition of PETCM
- caspase-3 activation ([2]; Q30, cytochrome c, 10 μM dATP, PHAPI, ProT, with PETCM (FIG. 5A, lane 4)): the inhibitory effect of ProT was reversed
- caspase-3 activation ([2]; Q-ft + Q30 + Q100, 0.2 mM PETCM with 10 μM dATP (lane 5)): caspase-3 activation was observed at 10 μM dATP
- caspase-3 activation ([2]; Q-ft + Q30 + Q100, PETCM, dATP completely omitted (lane 4)): No caspase-3 activation was seen
- efficiency of apoptosome formation compared with dATP (Apaf-1 (apoptosome); 0.2 mM PETCM vs 1 mM dATP): better than 1 mM dATP
- apoptosome formation (Apaf-1 shift) (Apaf-1 (apoptosome); S-100 incubated with 0.2 mM PETCM): Apaf-1 was also shifted to the position of apoptosome
- efficiency in activating caspase-3 compared with dATP (caspase-3 [3]; 0.2 mM PETCM vs 1.0 mM dATP): more efficient in activating caspase-3 than 1.0 mM dATP
- DEVD activity of HeLa S-100 (caspase-3 [3]; FIG. 1(B), increasing amounts of PETCM): stimulates DEVD activity of HeLa S-100 in a dose-dependent manner
- response of human cancer line extracts to PETCM [4]: responsive
- caspase-3 activation in extracts, PETCM requirement (caspase-3 [5]): responsive to PETCM

- caspase-3 activation ([2]; Q-ft + Q30 + Q100, 10 μM dATP (lane 3)): little caspase-3 activation was observed
- caspase-3 activation ([2]; Q-ft + Q30 + Q100, 1 mM dATP (lane 2)): robust caspase-3 activation
Compound: Nc1ncnc2c1ncn2[C@H]1C[C@H](O)[C@@H](COP(=O)(O)OP(=O)(O)OP(=O)(O)O)O1 [dATP, 2′-deoxyadenosine-5′-triphosphate, reference compound]
- apoptosome formation (Apaf-1 shift) (Apaf-1 (apoptosome); S-100 incubated with 1 mM dATP): most of the Apaf-1 was shifted to the size of ˜1 million Dalton
